Our source for the AC50 values is ChEMBL document CHEMBL5291721, “A preclinical secondary pharmacology resource illuminates target-adverse drug reaction associations of marketed drugs” (Nat Commun, 2023).

Experiment [1] addresses cGMP-inhibited 3',5'-cyclic phosphodiesterase 3A (Homo sapiens, UniProt Q14432). Type of experiment: functional.
The target in experiment [2] is 5-hydroxytryptamine receptor 2B (Homo sapiens, UniProt P41595). Type of experiment: functional, cell-based.
The target of experiment [3] is T1, Cannabinoid receptor 1 (Homo sapiens, UniProt P21554). Type of experiment: functional, cell-based.
T1 sequence (P21554 whole entry): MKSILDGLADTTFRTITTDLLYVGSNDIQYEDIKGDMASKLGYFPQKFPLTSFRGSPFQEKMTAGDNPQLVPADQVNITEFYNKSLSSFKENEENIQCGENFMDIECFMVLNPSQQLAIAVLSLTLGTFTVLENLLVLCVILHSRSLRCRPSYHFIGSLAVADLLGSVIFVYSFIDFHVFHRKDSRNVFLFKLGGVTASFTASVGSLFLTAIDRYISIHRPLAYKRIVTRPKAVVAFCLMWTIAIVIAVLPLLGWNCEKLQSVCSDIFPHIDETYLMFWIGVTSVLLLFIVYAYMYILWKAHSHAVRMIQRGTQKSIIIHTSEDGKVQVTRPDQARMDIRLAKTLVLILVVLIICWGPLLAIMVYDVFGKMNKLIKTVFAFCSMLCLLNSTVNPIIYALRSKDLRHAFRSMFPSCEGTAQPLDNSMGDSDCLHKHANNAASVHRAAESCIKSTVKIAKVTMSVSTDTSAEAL
Experiment [4] addresses T1, Cannabinoid receptor 1. The experiment is classed as functional, cell-based. This is another data set of the same source.
The target of experiment [5] is T2, Endothelin-1 receptor (Homo sapiens, UniProt P25101).
T2 sequence (P25101 whole entry): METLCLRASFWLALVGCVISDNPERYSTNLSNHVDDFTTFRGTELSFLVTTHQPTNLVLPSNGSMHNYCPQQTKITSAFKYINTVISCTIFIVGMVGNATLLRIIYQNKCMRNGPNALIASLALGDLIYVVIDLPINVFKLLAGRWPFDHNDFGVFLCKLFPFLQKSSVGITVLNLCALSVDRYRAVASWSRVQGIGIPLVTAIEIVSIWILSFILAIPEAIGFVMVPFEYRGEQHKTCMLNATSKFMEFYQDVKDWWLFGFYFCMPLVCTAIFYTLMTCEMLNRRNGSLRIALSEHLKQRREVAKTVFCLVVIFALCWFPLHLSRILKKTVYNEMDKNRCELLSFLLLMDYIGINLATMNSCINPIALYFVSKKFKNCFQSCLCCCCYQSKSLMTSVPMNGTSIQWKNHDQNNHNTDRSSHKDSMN

The target of experiment [6] is T3, Alpha-2A adrenergic receptor (Homo sapiens, UniProt P08913).
T3 sequence (P08913 whole entry): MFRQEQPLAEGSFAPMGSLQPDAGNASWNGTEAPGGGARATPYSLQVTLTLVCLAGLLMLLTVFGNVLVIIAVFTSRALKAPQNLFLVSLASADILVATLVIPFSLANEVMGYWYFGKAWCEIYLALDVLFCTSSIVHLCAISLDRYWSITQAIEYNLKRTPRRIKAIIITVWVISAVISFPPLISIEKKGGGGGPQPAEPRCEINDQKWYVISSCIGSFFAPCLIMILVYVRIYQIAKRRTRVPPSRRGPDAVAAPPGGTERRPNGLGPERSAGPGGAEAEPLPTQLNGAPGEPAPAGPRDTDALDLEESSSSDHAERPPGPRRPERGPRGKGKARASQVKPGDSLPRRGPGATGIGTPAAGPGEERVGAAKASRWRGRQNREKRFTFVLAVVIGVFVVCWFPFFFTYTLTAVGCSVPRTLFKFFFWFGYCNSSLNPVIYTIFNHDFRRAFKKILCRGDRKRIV
Type of experiment: functional, cell-based.

In experiment [7] the target is T4, Gastrin/cholecystokinin type B receptor (Homo sapiens, UniProt P32239).
T4 sequence (P32239 whole entry): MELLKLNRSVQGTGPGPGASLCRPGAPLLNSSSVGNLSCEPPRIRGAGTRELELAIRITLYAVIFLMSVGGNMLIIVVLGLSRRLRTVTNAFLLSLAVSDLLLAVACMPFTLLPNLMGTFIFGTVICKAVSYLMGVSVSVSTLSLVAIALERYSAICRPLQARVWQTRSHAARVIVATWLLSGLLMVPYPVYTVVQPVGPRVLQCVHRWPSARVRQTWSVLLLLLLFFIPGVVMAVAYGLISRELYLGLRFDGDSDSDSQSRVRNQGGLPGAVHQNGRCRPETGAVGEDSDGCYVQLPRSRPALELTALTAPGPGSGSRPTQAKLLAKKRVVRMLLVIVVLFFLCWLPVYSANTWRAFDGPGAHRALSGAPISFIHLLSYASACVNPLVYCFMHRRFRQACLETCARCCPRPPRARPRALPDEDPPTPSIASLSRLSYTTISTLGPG

Experiment [8] deals with Voltage-dependent L-type calcium channel subunit alpha-1C (Rattus norvegicus, UniProt P22002). Type of experiment: functional.
Sequence of Voltage-dependent L-type calcium channel subunit alpha-1C (P22002 whole entry): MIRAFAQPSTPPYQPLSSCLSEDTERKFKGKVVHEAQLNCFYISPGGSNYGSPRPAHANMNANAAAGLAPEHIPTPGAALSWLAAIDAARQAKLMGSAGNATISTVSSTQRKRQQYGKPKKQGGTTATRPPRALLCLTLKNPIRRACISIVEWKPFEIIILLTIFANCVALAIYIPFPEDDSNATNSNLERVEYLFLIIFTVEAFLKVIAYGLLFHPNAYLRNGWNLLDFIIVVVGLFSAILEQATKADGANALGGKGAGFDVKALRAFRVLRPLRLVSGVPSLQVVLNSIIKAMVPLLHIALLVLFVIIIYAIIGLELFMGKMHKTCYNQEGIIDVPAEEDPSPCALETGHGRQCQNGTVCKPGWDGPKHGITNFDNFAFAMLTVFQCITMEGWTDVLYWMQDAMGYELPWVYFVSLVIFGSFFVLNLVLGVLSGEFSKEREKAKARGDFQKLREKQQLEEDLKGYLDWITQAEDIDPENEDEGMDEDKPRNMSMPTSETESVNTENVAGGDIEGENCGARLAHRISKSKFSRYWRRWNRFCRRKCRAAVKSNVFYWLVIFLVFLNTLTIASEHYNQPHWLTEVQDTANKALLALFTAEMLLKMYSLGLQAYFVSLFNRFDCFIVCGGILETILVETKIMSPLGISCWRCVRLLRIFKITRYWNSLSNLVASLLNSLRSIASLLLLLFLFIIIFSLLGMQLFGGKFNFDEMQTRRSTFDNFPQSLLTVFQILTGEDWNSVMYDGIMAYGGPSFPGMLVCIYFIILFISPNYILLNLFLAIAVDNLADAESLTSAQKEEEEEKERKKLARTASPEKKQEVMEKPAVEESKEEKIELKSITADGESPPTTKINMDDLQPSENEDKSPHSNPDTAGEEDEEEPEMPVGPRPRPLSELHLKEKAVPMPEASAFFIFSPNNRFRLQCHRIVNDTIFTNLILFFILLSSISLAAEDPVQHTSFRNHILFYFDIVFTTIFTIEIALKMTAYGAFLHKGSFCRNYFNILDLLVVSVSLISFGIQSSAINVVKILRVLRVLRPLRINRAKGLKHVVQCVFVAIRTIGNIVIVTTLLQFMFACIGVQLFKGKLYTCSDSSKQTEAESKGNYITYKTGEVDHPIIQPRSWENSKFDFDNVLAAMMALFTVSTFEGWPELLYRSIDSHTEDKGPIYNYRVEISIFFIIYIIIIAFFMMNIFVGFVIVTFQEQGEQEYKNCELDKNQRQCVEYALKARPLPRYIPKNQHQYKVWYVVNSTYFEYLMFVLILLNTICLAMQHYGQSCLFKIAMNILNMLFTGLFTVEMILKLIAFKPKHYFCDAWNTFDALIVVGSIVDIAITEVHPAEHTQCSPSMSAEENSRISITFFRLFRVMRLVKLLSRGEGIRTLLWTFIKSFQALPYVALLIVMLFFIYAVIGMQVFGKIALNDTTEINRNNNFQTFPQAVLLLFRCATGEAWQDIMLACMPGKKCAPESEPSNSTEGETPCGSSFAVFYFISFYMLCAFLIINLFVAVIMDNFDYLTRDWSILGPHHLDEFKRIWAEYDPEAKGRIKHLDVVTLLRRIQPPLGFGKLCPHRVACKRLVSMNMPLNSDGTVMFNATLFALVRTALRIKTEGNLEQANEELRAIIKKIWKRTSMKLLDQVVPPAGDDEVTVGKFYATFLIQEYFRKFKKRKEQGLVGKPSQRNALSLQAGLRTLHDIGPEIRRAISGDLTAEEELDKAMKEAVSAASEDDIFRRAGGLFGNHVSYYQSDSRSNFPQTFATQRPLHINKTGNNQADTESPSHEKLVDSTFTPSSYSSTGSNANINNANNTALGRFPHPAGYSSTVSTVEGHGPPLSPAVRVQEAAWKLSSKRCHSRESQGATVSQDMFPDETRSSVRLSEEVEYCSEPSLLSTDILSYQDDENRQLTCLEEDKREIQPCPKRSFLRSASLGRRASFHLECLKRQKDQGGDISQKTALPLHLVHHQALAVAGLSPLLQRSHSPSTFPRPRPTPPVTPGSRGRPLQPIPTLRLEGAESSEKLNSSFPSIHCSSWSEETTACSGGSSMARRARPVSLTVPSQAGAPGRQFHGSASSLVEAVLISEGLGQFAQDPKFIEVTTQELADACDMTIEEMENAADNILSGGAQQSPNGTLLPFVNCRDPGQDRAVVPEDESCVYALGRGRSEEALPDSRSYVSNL

SMILES strings stand for the structures.
Further: assay procedure not described here.

Sequence of 5-hydroxytryptamine receptor 2B (P41595 whole entry): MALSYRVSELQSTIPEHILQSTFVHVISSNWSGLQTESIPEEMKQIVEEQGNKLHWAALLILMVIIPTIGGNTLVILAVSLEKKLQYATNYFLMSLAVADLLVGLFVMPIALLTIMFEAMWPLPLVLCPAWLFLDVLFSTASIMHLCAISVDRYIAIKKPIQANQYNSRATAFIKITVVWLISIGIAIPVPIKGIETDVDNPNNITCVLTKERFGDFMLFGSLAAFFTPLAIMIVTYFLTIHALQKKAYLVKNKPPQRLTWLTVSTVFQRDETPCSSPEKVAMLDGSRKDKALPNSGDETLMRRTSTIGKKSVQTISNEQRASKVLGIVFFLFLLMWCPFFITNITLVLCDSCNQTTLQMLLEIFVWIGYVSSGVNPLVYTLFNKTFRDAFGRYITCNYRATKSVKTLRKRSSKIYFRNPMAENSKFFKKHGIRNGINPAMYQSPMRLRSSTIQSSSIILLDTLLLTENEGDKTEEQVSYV
Sequence of cGMP-inhibited 3',5'-cyclic phosphodiesterase 3A (Q14432 whole entry): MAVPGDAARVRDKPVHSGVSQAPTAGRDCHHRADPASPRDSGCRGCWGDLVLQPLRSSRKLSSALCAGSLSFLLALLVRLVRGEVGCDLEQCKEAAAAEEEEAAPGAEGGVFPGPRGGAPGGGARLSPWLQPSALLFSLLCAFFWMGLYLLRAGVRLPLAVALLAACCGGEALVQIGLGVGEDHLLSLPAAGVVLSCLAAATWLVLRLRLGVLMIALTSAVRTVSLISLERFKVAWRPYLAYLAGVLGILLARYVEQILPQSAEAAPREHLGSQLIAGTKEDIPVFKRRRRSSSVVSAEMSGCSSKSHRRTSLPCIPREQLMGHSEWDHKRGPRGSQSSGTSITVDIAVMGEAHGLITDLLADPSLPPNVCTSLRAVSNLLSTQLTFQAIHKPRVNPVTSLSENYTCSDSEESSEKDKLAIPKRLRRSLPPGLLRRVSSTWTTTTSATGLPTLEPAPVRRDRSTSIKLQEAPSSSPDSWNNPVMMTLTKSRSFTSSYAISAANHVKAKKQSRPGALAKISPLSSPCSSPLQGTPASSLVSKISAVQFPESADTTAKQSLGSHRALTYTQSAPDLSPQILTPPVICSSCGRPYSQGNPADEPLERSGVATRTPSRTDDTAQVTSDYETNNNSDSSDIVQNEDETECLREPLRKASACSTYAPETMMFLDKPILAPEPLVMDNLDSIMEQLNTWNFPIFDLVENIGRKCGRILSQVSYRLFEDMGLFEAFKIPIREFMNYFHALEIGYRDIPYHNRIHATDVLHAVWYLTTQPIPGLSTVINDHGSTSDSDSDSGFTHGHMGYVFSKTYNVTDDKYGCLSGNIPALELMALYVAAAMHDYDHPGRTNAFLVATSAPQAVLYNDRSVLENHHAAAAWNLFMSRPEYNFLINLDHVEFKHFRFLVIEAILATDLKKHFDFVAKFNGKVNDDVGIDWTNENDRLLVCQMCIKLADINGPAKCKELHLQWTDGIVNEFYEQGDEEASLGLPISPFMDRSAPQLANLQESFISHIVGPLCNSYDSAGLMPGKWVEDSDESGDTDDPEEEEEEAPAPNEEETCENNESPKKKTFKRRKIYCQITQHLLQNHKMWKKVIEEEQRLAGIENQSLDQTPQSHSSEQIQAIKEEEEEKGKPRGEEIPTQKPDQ

As usually defined, the AC50 is the midpoint of the concentration-response curve, whichever way the signal moves. Regarding `CC(=N)N1CC[C@H](SC2=C(C(=O)O)N3C(=O)[C@H]([C@@H](C)O)[C@H]3C2)C1`, the AC50 in experiment [1], in experiment [2], in experiment [3], in experiment [4], in experiment [5] and in experiment [6] was over 300 µM throughout.

Regarding `CC1(C)S[C@@H]2[C@H](NC(=O)[C@H](N)c3ccc(O)cc3)C(=O)N2[C@H]1C(=O)O` [AMOXICILLIN], the AC50 in experiment [1], in experiment [2], in experiment [7], in experiment [8], in experiment [5] and in experiment [6] was over 30 µM in each case.

For the molecule `O=C1CN2Cc3c(ccc(Cl)c3Cl)N=C2N1` [ANAGRELIDE], the AC50 is over 10 µM in experiment [2]; over 30 µM in experiment [7]; over 10 µM in experiment [8]; over 30 µM in experiment [3]; over 10 µM in experiment [6].

Consider `CNCC[C@@H](Oc1ccccc1C)c1ccccc1` [ATOMOXETINE], for which the AC50 in experiment [1] was over 30 µM; in experiment [2], 25 µM; in experiment [7], over 30 µM; in experiment [8] it was over 30 µM; in experiment [3] it was over 30 µM; in experiment [4], over 30 µM. This molecule displayed an AC50 in experiment [5] of over 30 µM.

Turning to `C=C(C)[C@@H]1CCC(C)=C[C@H]1c1c(O)cc(CCCCC)cc1O` [CANNABIDIOL], the AC50 in experiment [1] is 25 µM; in experiment [2], 2.28 µM; in experiment [5] it was over 30 µM; in experiment [6], over 10 µM.

Take `CO/N=C(\C(=O)N[C@@H]1C(=O)N2C(C(=O)O)=C(COC(N)=O)CS[C@H]12)c1ccco1` [CEFUROXIME]: the AC50 in experiment [1], in experiment [2], in experiment [7], in experiment [3], in experiment [4] and in experiment [5] was over 30 µM throughout. In experiment [6], this molecule displayed an AC50 of over 30 µM.

Take `[H]/N=C(\N/C(=N/[H])NCCCCCCNC(=N)NC(=N)Nc1ccc(Cl)cc1)Nc1ccc(Cl)cc1` [CHLORHEXIDINE]: the AC50 in experiment [1] was 11 µM; in experiment [2], 1.26 µM; in experiment [8], over 10 µM; in experiment [3], over 30 µM; in experiment [6], over 30 µM.

Consider `Clc1cccc(Cl)c1N=C1NCCN1` [CLONIDINE], for which the AC50 in experiment [1] is over 30 µM; in experiment [2], over 10 µM; in experiment [7], over 30 µM; in experiment [8], over 10 µM; in experiment [3], over 30 µM; in experiment [4], over 30 µM. In experiment [5], the AC50 was over 30 µM.

Regarding `CN1C[C@H](C(=O)N[C@]2(C)O[C@@]3(O)[C@@H]4CCCN4C(=O)[C@H](Cc4ccccc4)N3C2=O)C[C@@H]2c3cccc4[nH]cc(c34)C[C@H]21` [DIHYDROERGOTAMINE], the AC50 is over 30 µM in experiment [1]; over 30 µM in experiment [7]; over 10 µM in experiment [8]; over 30 µM in experiment [3]; over 30 µM in experiment [4]; over 30 µM in experiment [5].

On to `CNCC[C@H](Oc1cccc2ccccc12)c1cccs1` [DULOXETINE], for which the AC50 is over 30 µM in experiment [1]; 12 µM in experiment [2]; over 30 µM in experiment [7]; over 10 µM in experiment [8]; over 30 µM in experiment [3]; over 30 µM in experiment [4]. This molecule also returned an AC50 in experiment [6] of over 10 µM.

Take `CC1(C)O[C@@H]2C[C@H]3[C@@H]4C[C@H](F)C5=CC(=O)C=C[C@]5(C)[C@H]4[C@@H](O)C[C@]3(C)[C@]2(C(=O)CO)O1` [FLUNISOLIDE]: the AC50 in experiment [1], in experiment [2], in experiment [3], in experiment [4], in experiment [5] and in experiment [6] was over 30 µM in each case.

As to `C[C@H]1Oc2cc(cnc2N)-c2c(nn(C)c2C#N)CN(C)C(=O)c2ccc(F)cc21` [LORLATINIB], the AC50 in experiment [1] is over 30 µM; in experiment [2], 14 µM; in experiment [3], over 30 µM; in experiment [4], over 30 µM; in experiment [5] it was over 30 µM; in experiment [6], over 30 µM.

For `CC[C@@H](CO)NC(=O)[C@@H]1C=C2c3cccc4[nH]cc(c34)C[C@H]2N(C)C1` [METHYLERGONOVINE], the AC50 in experiment [1], in experiment [7], in experiment [3], in experiment [4], in experiment [5] and in experiment [6] was over 30 µM in each case.

For the molecule `CNCCC=C1c2ccccc2CCc2ccccc21` [NORTRIPTYLINE], the AC50 in experiment [2] is 0.73 µM; in experiment [7], over 30 µM; in experiment [8], over 30 µM; in experiment [5] it was over 30 µM.

Regarding `COc1ccc(Cc2nccc3cc(OC)c(OC)cc23)cc1OC` [PAPAVERINE], the AC50 in experiment [2], in experiment [7], in experiment [8], in experiment [3], in experiment [4] and in experiment [5] was over 30 µM in each case. The AC50 in experiment [6] was over 30 µM.

As to `CNC[C@H](O)c1cccc(O)c1` [PHENYLEPHRINE], the AC50 in experiment [1] is over 30 µM; in experiment [2] it was over 30 µM; in experiment [7], over 30 µM; in experiment [8], over 10 µM; in experiment [3] it was over 30 µM; in experiment [4], over 30 µM. Besides, the AC50 in experiment [5] is over 30 µM.

Regarding `CCOc1cc(CC(=O)N[C@@H](CC(C)C)c2ccccc2N2CCCCC2)ccc1C(=O)O` [REPAGLINIDE], the AC50 in experiment [1], in experiment [2], in experiment [3], in experiment [4], in experiment [5] and in experiment [6] was over 30 µM in each case.

As for `NC(=O)c1ncn([C@@H]2O[C@H](CO)[C@@H](O)[C@H]2O)n1` [RIBAVIRIN], the concentration at half-maximal activity (AC50) in experiment [1] is over 30 µM; in experiment [2], over 10 µM; in experiment [8], over 10 µM; in experiment [3], over 30 µM; in experiment [4], over 30 µM; in experiment [6], over 10 µM.

As for `O=C(Nc1c(Cl)cncc1Cl)c1ccc(OC(F)F)c(OCC2CC2)c1` [ROFLUMILAST], the AC50 in experiment [1], in experiment [2], in experiment [7], in experiment [3], in experiment [4] and in experiment [5] was over 30 µM throughout. For the same molecule, the AC50 in experiment [6] is over 30 µM.

Regarding `CCCN(CCC)CCc1cccc2c1CC(=O)N2` [ROPINIROLE], the AC50 in experiment [1] was over 30 µM; in experiment [7], over 30 µM; in experiment [8] it was over 10 µM; in experiment [3] it was over 30 µM; in experiment [4] it was over 30 µM; in experiment [5] it was over 30 µM. The AC50 in experiment [6] was over 30 µM.

For `CCCN(CCc1cccs1)[C@H]1CCc2c(O)cccc2C1` [ROTIGOTINE], the AC50 in experiment [1] is over 30 µM; in experiment [3], over 30 µM; in experiment [4] it was 20 µM; in experiment [5], over 30 µM; in experiment [6] it was 3.7 µM.

For `CC[C@H]1OC(=O)[C@H](C)[C@@H](O[C@H]2C[C@@](C)(OC)[C@@H](O)[C@H](C)O2)[C@H](C)[C@@H](O[C@@H]2O[C@H](C)C[C@H](N(C)C)[C@H]2O)[C@](C)(O)C[C@@H](C)/C(=N\OCOCCOC)[C@H](C)[C@@H](O)[C@]1(C)O` [ROXITHROMYCIN], the AC50 in experiment [1], in experiment [2], in experiment [3], in experiment [4], in experiment [5] and in experiment [6] was over 30 µM throughout.

On to `CN1CCN(CCCN2c3ccccc3Sc3ccc(S(=O)(=O)N(C)C)cc32)CC1` [THIOPROPERAZINE], for which the AC50 in experiment [1], in experiment [2], in experiment [3], in experiment [4] and in experiment [6] was over 30 µM each time.
